Data from patent publication US10760052B2, “Method of inhibiting tau phosphorylation” (priority 2012, dated 2020).
Where two headings read alike, the source gives them in different places.

Target: T1, mu opiate receptor (MOR) (Rattus norvegicus, UniProt P33535)
T1 construct: from tissue; host or cells: striatum (membrane preparation)
Type: biochemical
Conditions: for [35S]GTPγS binding, FLNA-Binding Compound as Agonist at 0.1 μM: 0.1 μM compound; for [35S]GTPγS binding, FLNA-Binding Compound as Agonist at 0.1 μM / [35S]GTPγS binding, FLNA-Binding Compound as Agonist at 1 μM: striatal membranes; for [35S]GTPγS binding, FLNA-Binding Compound as Agonist at 0.1 μM / [35S]GTPγS binding, FLNA-Binding Compound as Agonist at 1 μM + BFNA / [35S]GTPγS binding, FLNA-Binding Compound as Agonist at 1 μM: Series C-2; for [35S]GTPγS binding, FLNA-Binding Compound as Agonist at 1 μM + BFNA: 1 μM compound + 1 μM β-FNA (selective MOR antagonist); for [35S]GTPγS binding, FLNA-Binding Compound as Agonist at 1 μM: 1 μM compound
Experimental: To assess the mu opiate receptor (MOR) agonist activity of positive compounds from the FLNA screening, compounds were tested in a [^35S]GTPγS binding assay using striatal membranes. […] This assay measures a functional consequence of receptor occupancy at one of the earliest receptor-mediated events. The assay permits for traditional pharmacological parameters of potency, efficacy and antagonist affinity, with the advantage that agonist measures are not subjected to amplification or other modulation that may occur when analyzing parameters further downstream of the receptor.
Thus, striatal tissue was homogenized in 10 volumes of ice cold 25 mM HEPES buffer, pH 7.4, which contained 1 mM EGTA, 100 mM sucrose, 50 μg/ml leupeptin, 0.04 mM PMSF, 2 μg/ml soybean trypsin inhibitor and 0.2% 2-mercaptoethanol. The homogenates were centrifuged at 800×g for 5 minutes and the supernatants were centrifuged at 49,000×g for 20 minutes.
The resultant striatal membrane preparation (200 μg) was admixed and maintained (incubated) at 30° C. for 5 minutes in reaction buffer as above that additionally contained 1 mM MgCl2 and 0.5 nM [^35S]GTPγS (0.1 μCi/assay, PerkinElmer Life and Analytical Sciences) in a total volume of 250 μl and continued for 5 minutes in the absence or presence of 0.1-10 μM of an assayed compound of interest. The reaction was terminated by dilution with 750 μl of ice-cold reaction buffer that contained 20 mM MgCl2 and 1 mM EGTA and immediate centrifugation at 16,000×g for 5 minutes.
Normal rabbit serum (1 μl) was added to 1 ml of lysate and incubated at 25° C. for 30 minutes. Nonspecific immune complexes were removed by incubation with 25 μl of protein A/G-conjugated agarose beads at 25° C. for 30 minutes followed by centrifugation at 5,000×g at 4° C. for 5 minutes. The supernatant was divided and separately incubated at 25° C. for 30 minutes with antibodies raised against Gαo proteins (1:1,000 dilutions).
The immunocomplexes so formed were collected by incubation at 25° C. for 30 minutes with 40 μl of agarose-conjugated protein A/G beads and centrifugation at 5,000×g at 4° C. for 5 minutes. The pellet was washed and suspended in buffer containing 50 mM Tris-HCl, pH 8.0, and 1% NP-40. The radioactivity in the suspension was determined by liquid scintillation spectrometry.

[1] = [35S]GTPγS binding to Gαo in striatal membranes, compound 0.1 μM
[2] = [35S]GTPγS binding to Gαo in striatal membranes, compound 1 μM
[3] = [35S]GTPγS binding to Gαo in striatal membranes, compound 1 μM plus 1 μM β-funaltrexamine (MOR antagonist)

T1 sequence (P33535 whole entry): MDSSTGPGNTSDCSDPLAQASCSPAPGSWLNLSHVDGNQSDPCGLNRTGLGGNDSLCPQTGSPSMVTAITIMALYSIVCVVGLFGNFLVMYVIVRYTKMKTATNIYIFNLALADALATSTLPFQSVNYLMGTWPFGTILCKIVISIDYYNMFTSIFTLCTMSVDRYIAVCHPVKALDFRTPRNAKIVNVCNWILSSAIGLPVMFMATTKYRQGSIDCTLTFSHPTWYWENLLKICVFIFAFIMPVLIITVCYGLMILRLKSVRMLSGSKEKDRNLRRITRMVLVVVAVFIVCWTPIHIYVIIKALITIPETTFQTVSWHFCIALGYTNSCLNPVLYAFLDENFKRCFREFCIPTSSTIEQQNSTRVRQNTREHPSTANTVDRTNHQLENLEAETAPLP

SMILES	% DAMGO (0.1 μM) [%]	% DAMGO (1 μM) [%]	% DAMGO + BFNA [%]	[35S]GTPγS binding, FLNA-Binding Compound as Agonist at 0.1 μM [%]	[35S]GTPγS binding, FLNA-Binding Compound as Agonist at 1 μM + BFNA [%]	[35S]GTPγS binding, FLNA-Binding Compound as Agonist at 1 μM [%]	Concentration of FLNA-Binding Compound as Agonist 0.1 μM [1] [%]	Concentration of FLNA-Binding Compound as Agonist 1 μM [2] [%]	Concentration of FLNA-Binding Compound as Agonist 1 μM + BFNA [3] [%]	Concentration of FLNA-Binding Compound as Agonist 0.1 μM [%]	Concentration of FLNA-Binding Compound as Agonist 1 μM [%]	Concentration of FLNA-Binding Compound as Agonist 1 μM + BFNA [%]
O=C1CN(C2CCc3ccccc3C2)C2(CCN(S(=O)(=O)c3ccccc3)CC2)N1 (stereo not drawn) [C0136M(P5)]	93.4	95.6	153.6	176.8	74.5	237.3						
O=C1CN(Cc2ccccc2)C2(CCN(C3CCCCC3)CC2)N1 [C0137M (P7)]	95.6	78.1	115.1	180.8	55.8	193.8						
COc1ccccc1CC(=O)CC1c2c(cc3c(c2OC)OCO3)CC[N+]1(C)C (stereo not drawn) [Compound 5009]	66.9	83.2	181.5				128.5	270.4	87.5			
COc1ccc(S(=O)(=O)N2CCC3(CC2)OCCN3S(=O)(=O)c2ccc(OC)cc2)cc1 [Compound 7866]	79.3	94.8	129.5				152.3	308.2	62.4			
CC1CCC(C(C)C)C(OCC(O)CN2CCCC2)C1 (stereo not drawn) [Compound A0001]	63.1	78.9	83.8				94.3	181.7	22.2			
CC1CCC(C(C)C)C(OCC(O)CN2CCSC2)C1 (stereo not drawn) [Compound A0002]	104.1	86.6	24.5				155.6	199.4	6.5			
CC1CCC(C(C)C)C(OCC(O)CN2CCSCC2)C1 (stereo not drawn) [Compound A0003]	118.3	119.9	64.5							176.8	276.0	17.1
CC1CCC(C(C)C)C(OCC(O)CN2CCOCC2)C1 (stereo not drawn) [Compound A0004]	55.2	55.6	130.9				97.4	144.2	86.0			
CC1CCC(C(C)C)C(OCC(O)CN2CCCCC2)C1 (stereo not drawn) [Compound A0005]	105.0	89.6	45.1				179.7	239.2	23.5			
CC1CCN(CC(O)COC2CC(C)CCC2C(C)C)CC1 (stereo not drawn) [Compound A0006]	113.8	82.9	68.7				170.0	190.9	18.2			
CC1CCC(C(C)C)C(OCC(O)CN2CCCCC2C)C1 (stereo not drawn) [Compound A0007]	68.3	96.4	152.5				102.0	221.9	40.4			
CC1CCC(C(C)C)C(OCC(O)CN2CC(C)CC(C)C2)C1 (stereo not drawn) [Compound A0008]	109.6	102.1	505.3				163.8	235.0	133.9			
CC1CCC(C(C)C)C(OCC(O)CN2CCN(C)CC2)C1 (stereo not drawn) [Compound A0009]	39.8	48.7	142.9				70.2	126.4	93.9			
CC1CCC(C(C)C)C(OCC(O)CN2CCCN(C)CC2)C1 (stereo not drawn) [Compound A0010]	161.9	119.5	365.3				277.2	319.0	190.3			
CC1CCC(C(C)C)C(OCC(O)CN2CCN(CCN3CCOCC3)CC2)C1 (stereo not drawn) [Compound A0011]	158.2	124.9	177.4				236.3	287.5	47.0			
COc1ccc(N2CCN(CC(O)COC3CC(C)CCC3C(C)C)CC2)c(OC)c1 (stereo not drawn) [Compound A0012]	99.9	80.7	461.9				149.3	185.7	122.4			
CC1CCC(C(C)C)C(OCC(O)CN2CCCCCC2)C1 (stereo not drawn) [Compound A0013]	57.8	63.6	131.1				102.1	164.8	86.1			
CC1CCC(C(C)C)C(OCC(O)CN2CCCCCCC2)C1 (stereo not drawn) [Compound A0014]	83.2	67.5	214.3				147.0	174.9	140.8			
CC1CCC(C(C)C)C(OCC(O)CN2CCC2)C1 (stereo not drawn) [Compound A0015]	64.8	56.2	120.0				110.9	150.1	62.5			
CC1CN(CC(O)COC2CCCCC2)CC(C)O1 (stereo not drawn) [Compound A0017]	96.9	100.4	187.9				161.9	246.0	65.2			
CC1CCC(C(C)C)C(OCC(O)CN2CCN(CCc3ccccc3)CC2)C1 (stereo not drawn) [Compound A0020]	100.9	88.7	194.2				168.6	217.4	67.4			
